# Data taken from PubChem BioAssay (NCI).
# “And” between values parts separate entries of the source, which are not always exact repeats. Equal values may be shown once.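 Results reflect a 48-hour exposure of cells in 96-well plates to compound at five concentrations. At the GI50, growth is halved. TGI: total growth inhibition.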
# What was measured:
# Assay in all cases: DTP human tumour cell line panel, 48 h
# NCI-H522 lung = system: NCI-H522 lung
# UO-31 renal = system: UO-31 renal
# COLO 205 colon = system: COLO 205 colon
# SK-MEL-5 melanoma = system: SK-MEL-5 melanoma
# K-562 leukemia = system: K-562 leukemia
# HCT-15 colon = system: HCT-15 colon
# NCI-H23 lung = system: NCI-H23 lung
# RPMI-8226 leukemia = system: RPMI-8226 leukemia
# XF 498 CNS = system: XF 498 CNS
# SF-268 CNS = system: SF-268 CNS
# UACC-257 melanoma = system: UACC-257 melanoma
# HOP-18 NSCLC = system: HOP-18 NSCLC
# M14 melanoma = system: M14 melanoma
# HT29 colon = system: HT29 colon
# OVCAR-3 ovarian = system: OVCAR-3 ovarian
# DMS 273 small cell lung = system: DMS 273 small cell lung
# HOP-92 NSCLC = system: HOP-92 NSCLC
# M19-MEL melanoma = system: M19-MEL melanoma
# KM12 colon = system: KM12 colon
# HL-60(TB) leukemia = system: HL-60(TB) leukemia
# SK-MEL-2 melanoma = system: SK-MEL-2 melanoma
# DMS 114 small cell lung = system: DMS 114 small cell lung
# MALME-3M melanoma = system: MALME-3M melanoma
# A549 NSCLC = system: A549 NSCLC
# SF-295 CNS = system: SF-295 CNS
# SNB-75 CNS = system: SNB-75 CNS
# HCT-116 colon = system: HCT-116 colon
# SNB-19 CNS = system: SNB-19 CNS
# ACHN renal = system: ACHN renal
# LXFL 529 NSCLC = system: LXFL 529 NSCLC
# SN12C renal = system: SN12C renal
# U251 CNS = system: U251 CNS
# SF-539 CNS = system: SF-539 CNS
# 786-0 renal = system: 786-0 renal
# NCI-H226 lung = system: NCI-H226 lung
# DLD-1 colon = system: DLD-1 colon
# TK-10 renal = system: TK-10 renal
# IGROV1 ovarian = system: IGROV1 ovarian
# HOP-62 NSCLC = system: HOP-62 NSCLC
# OVCAR-5 ovarian = system: OVCAR-5 ovarian
# OVCAR-4 ovarian = system: OVCAR-4 ovarian
# OVCAR-8 ovarian = system: OVCAR-8 ovarian
# EKVX NSCLC = system: EKVX NSCLC
# SK-OV-3 ovarian = system: SK-OV-3 ovarian
# CCRF-CEM leukemia = system: CCRF-CEM leukemia
# MOLT-4 leukemia = system: MOLT-4 leukemia
# NCI-H460 lung = system: NCI-H460 lung
# SK-MEL-28 melanoma = system: SK-MEL-28 melanoma
# HCC-2998 colon = system: HCC-2998 colon
# SNB-78 CNS = system: SNB-78 CNS
# RXF 393 renal = system: RXF 393 renal
# UACC-62 melanoma = system: UACC-62 melanoma
# SW-620 colon = system: SW-620 colon
# A498 renal = system: A498 renal
# CAKI-1 renal = system: CAKI-1 renal
# LOX IMVI melanoma = system: LOX IMVI melanoma
# KM20L2 colon = system: KM20L2 colon
# SR leukemia = system: SR leukemia
compound,measurement,setting,value
O=S(Cc1ccccc1)c1nc2ccccc2nc1-c1cccs1 (stereo unspecified),TGI,NCI-H522 lung,3.4 µM
same,TGI,UO-31 renal,41 µM
same,TGI,COLO 205 colon,42.7 µM
same,TGI,SK-MEL-5 melanoma,23.7 µM
same,TGI,K-562 leukemia,> 100 µM
same,TGI,HCT-15 colon,25.5 µM
same,TGI,NCI-H23 lung,33.8 µM
same,TGI,RPMI-8226 leukemia,68 µM
same,TGI,XF 498 CNS,12.3 µM
same,TGI,SF-268 CNS,51.4 µM
same,TGI,UACC-257 melanoma,26.5 µM
same,TGI,HOP-18 NSCLC,29.5 µM
same,TGI,M14 melanoma,25.4 µM
same,TGI,HT29 colon,27.1 µM
same,TGI,OVCAR-3 ovarian,24 µM
same,TGI,DMS 273 small cell lung,22.7 µM
same,TGI,HOP-92 NSCLC,29.8 µM
same,TGI,M19-MEL melanoma,22.6 µM
same,TGI,KM12 colon,34.5 µM
same,TGI,HL-60(TB) leukemia,> 100 µM
same,TGI,SK-MEL-2 melanoma,24.2 µM
same,TGI,DMS 114 small cell lung,5.91 µM
same,TGI,MALME-3M melanoma,19.4 µM
same,TGI,A549 NSCLC,30.7 µM
same,TGI,SF-295 CNS,52.9 µM
same,TGI,SNB-75 CNS,36.1 µM
same,TGI,HCT-116 colon,23.3 µM
same,TGI,SNB-19 CNS,39.4 µM
same,TGI,ACHN renal,26.9 µM
same,TGI,LXFL 529 NSCLC,12.8 µM
same,TGI,SN12C renal,28.1 µM
same,TGI,U251 CNS,33.5 µM
same,TGI,SF-539 CNS,30 µM
same,TGI,786-0 renal,23.4 µM
same,TGI,NCI-H226 lung,16.7 µM
same,TGI,DLD-1 colon,24.6 µM
same,TGI,TK-10 renal,28 µM
same,TGI,IGROV1 ovarian,29.2 µM
same,TGI,HOP-62 NSCLC,37.4 µM
same,TGI,OVCAR-5 ovarian,31.9 µM
same,TGI,OVCAR-4 ovarian,24.6 µM
same,TGI,OVCAR-8 ovarian,38.8 µM
same,TGI,EKVX NSCLC,60.6 µM
same,TGI,SK-OV-3 ovarian,85.4 µM
same,TGI,CCRF-CEM leukemia,> 100 µM
same,TGI,MOLT-4 leukemia,> 100 µM
same,TGI,NCI-H460 lung,45.4 µM
same,TGI,SK-MEL-28 melanoma,23.9 µM
same,TGI,HCC-2998 colon,26.1 µM
same,TGI,SNB-78 CNS,56.2 µM
CCC[CH2][Sn]([CH2]CCC)([O]C(=O)CN)[O]C(=O)CN,GI50,NCI-H522 lung,11.6 µM
same,TGI,NCI-H522 lung,38 µM
same,GI50,UO-31 renal,> 100 µM
same,TGI,UO-31 renal,> 100 µM
same,GI50,COLO 205 colon,42.9 µM
same,TGI,COLO 205 colon,> 100 µM
same,GI50,RXF 393 renal,16.2 µM
same,TGI,RXF 393 renal,44.3 µM
same,GI50,SK-MEL-5 melanoma,66.6 µM
same,TGI,SK-MEL-5 melanoma,> 100 µM
same,GI50,K-562 leukemia,18.7 µM
same,TGI,K-562 leukemia,> 100 µM
same,GI50,HCT-15 colon,26.9 µM
same,TGI,HCT-15 colon,63.6 µM
same,GI50,NCI-H23 lung,21.1 µM
same,TGI,NCI-H23 lung,70.2 µM
same,GI50,RPMI-8226 leukemia,15.3 µM
same,TGI,RPMI-8226 leukemia,54.5 µM
same,GI50,XF 498 CNS,19.6 µM
same,TGI,XF 498 CNS,48 µM
same,GI50,SF-268 CNS,20.6 µM
same,TGI,SF-268 CNS,71.6 µM
same,GI50,UACC-257 melanoma,50.4 µM
same,TGI,UACC-257 melanoma,> 100 µM
same,GI50,M14 melanoma,36.7 µM
same,TGI,M14 melanoma,> 100 µM
same,GI50,UACC-62 melanoma,17.5 µM
same,TGI,UACC-62 melanoma,60.5 µM
same,GI50,HT29 colon,> 100 µM
same,TGI,HT29 colon,> 100 µM
same,GI50,OVCAR-3 ovarian,27.8 µM
same,TGI,OVCAR-3 ovarian,> 100 µM
same,GI50,SW-620 colon,18.1 µM
same,TGI,SW-620 colon,37 µM
same,GI50,DMS 273 small cell lung,38.6 µM
same,TGI,DMS 273 small cell lung,> 100 µM
same,GI50,HOP-92 NSCLC,73.2 µM
same,TGI,HOP-92 NSCLC,> 100 µM
same,GI50,M19-MEL melanoma,49.7 µM
same,TGI,M19-MEL melanoma,> 100 µM
same,GI50,KM12 colon,> 100 µM
same,TGI,KM12 colon,> 100 µM
same,GI50,HL-60(TB) leukemia,18.5 µM
same,TGI,HL-60(TB) leukemia,65 µM
same,GI50,A498 renal,44.8 µM
same,TGI,A498 renal,> 100 µM
same,GI50,SK-MEL-2 melanoma,18.5 µM
same,TGI,SK-MEL-2 melanoma,48.8 µM
same,GI50,DMS 114 small cell lung,17.9 µM
same,TGI,DMS 114 small cell lung,46.5 µM
same,GI50,MALME-3M melanoma,6.1 µM
same,TGI,MALME-3M melanoma,41.2 µM
same,GI50,A549 NSCLC,> 100 µM
same,TGI,A549 NSCLC,> 100 µM
same,GI50,SF-295 CNS,34.5 µM
same,TGI,SF-295 CNS,> 100 µM
same,GI50,SNB-75 CNS,29.6 µM
same,TGI,SNB-75 CNS,> 100 µM
same,GI50,HCT-116 colon,71.2 µM
same,TGI,HCT-116 colon,> 100 µM
same,GI50,SNB-19 CNS,45.5 µM
same,TGI,SNB-19 CNS,> 100 µM
same,GI50,ACHN renal,48.1 µM
same,TGI,ACHN renal,> 100 µM
same,GI50,LXFL 529 NSCLC,11.4 µM
same,TGI,LXFL 529 NSCLC,26 µM
same,GI50,CAKI-1 renal,14.7 µM
same,TGI,CAKI-1 renal,51.1 µM
same,GI50,SN12C renal,57.2 µM
same,TGI,SN12C renal,> 100 µM
same,GI50,U251 CNS,26 µM
same,TGI,U251 CNS,80.7 µM
same,GI50,SF-539 CNS,57 µM
same,TGI,SF-539 CNS,> 100 µM
same,GI50,786-0 renal,33 µM
same,TGI,786-0 renal,> 100 µM
same,GI50,NCI-H226 lung,> 100 µM
same,TGI,NCI-H226 lung,> 100 µM
same,GI50,DLD-1 colon,92.7 µM
same,TGI,DLD-1 colon,> 100 µM
same,GI50,TK-10 renal,38.4 µM
same,TGI,TK-10 renal,> 100 µM
same,GI50,IGROV1 ovarian,> 100 µM
same,TGI,IGROV1 ovarian,> 100 µM
same,GI50,HOP-62 NSCLC,7.25 µM
same,TGI,HOP-62 NSCLC,> 100 µM
same,GI50,LOX IMVI melanoma,22.1 µM
same,TGI,LOX IMVI melanoma,59.7 µM
same,GI50,OVCAR-5 ovarian,> 100 µM
same,TGI,OVCAR-5 ovarian,> 100 µM
same,GI50,OVCAR-4 ovarian,> 100 µM
same,TGI,OVCAR-4 ovarian,> 100 µM
same,GI50,KM20L2 colon,63.6 µM
same,TGI,KM20L2 colon,> 100 µM
same,GI50,OVCAR-8 ovarian,69 µM
same,TGI,OVCAR-8 ovarian,> 100 µM
same,GI50,EKVX NSCLC,16 µM
same,TGI,EKVX NSCLC,51.2 µM
same,GI50,SR leukemia,22.9 µM
same,TGI,SR leukemia,95.6 µM
same,GI50,SK-OV-3 ovarian,> 100 µM
same,TGI,SK-OV-3 ovarian,> 100 µM
same,GI50,CCRF-CEM leukemia,5.93 µM
same,TGI,CCRF-CEM leukemia,51.8 µM
same,GI50,MOLT-4 leukemia,29.1 µM
same,TGI,MOLT-4 leukemia,> 100 µM
same,GI50,NCI-H460 lung,> 100 µM
same,TGI,NCI-H460 lung,> 100 µM
same,GI50,SK-MEL-28 melanoma,29.2 µM
same,TGI,SK-MEL-28 melanoma,> 100 µM
same,GI50,HCC-2998 colon,93.3 µM
same,TGI,HCC-2998 colon,> 100 µM
same,GI50,SNB-78 CNS,21.6 µM
same,TGI,SNB-78 CNS,72 µM
COc1ccc(C2=C[C@]3(O)CCCN3C[C@@H]2c2ccc(OC)c(OC)c2)cc1,TGI,NCI-H522 lung,< 0.0001 µM
same,TGI,COLO 205 colon,< 0.0001 µM
same,TGI,RXF 393 renal,0.0223 µM
same,TGI,SK-MEL-5 melanoma,< 0.0001 µM
same,TGI,NCI-H23 lung,0.000105 µM
same,TGI,RPMI-8226 leukemia,13.9 µM
same,TGI,XF 498 CNS,0.449 µM
same,TGI,HOP-18 NSCLC,0.000214 µM
same,TGI,M14 melanoma,< 0.0001 µM
same,TGI,SW-620 colon,0.00183 µM
same,TGI,DMS 273 small cell lung,0.000172 µM
same,TGI,HOP-92 NSCLC,0.000527 µM
same,TGI,M19-MEL melanoma,0.000396 µM
same,TGI,HL-60(TB) leukemia,< 0.0001 µM
same,TGI,SK-MEL-2 melanoma,0.000164 µM
same,TGI,MALME-3M melanoma,< 0.0001 µM
same,TGI,HCT-116 colon,0.00112 µM
same,TGI,ACHN renal,0.00185 µM
same,TGI,CAKI-1 renal,0.00162 µM
same,TGI,SN12C renal,> 100 µM
same,TGI,NCI-H226 lung,< 0.0001 µM
same,TGI,TK-10 renal,0.611 µM
same,TGI,OVCAR-4 ovarian,0.0384 µM
same,TGI,SR leukemia,< 0.0001 µM
same,TGI,SK-MEL-28 melanoma,0.00216 µM and 0.0197 µM
same,TGI,HCC-2998 colon,0.101 µM
same,TGI,SNB-78 CNS,0.0338 µM
